How the values were obtained:
[1] = rats, oral, 'raw' edaravone suspended with 0.5% CMC-Na, vs 100% intravenous; cited from earlier work
[2] = Single 60 mg dose of Radicut edaravone solution, oral and i.v. infusion, plasma pharmacokinetics in dogs; assay type: in vivo; details: male, beagle, dog, iv, i.v. infusion 60 mg (15 min)
Description: The study was conducted in a group of 4 male beagle dogs. […] After a wash-out period of 2 days, the animals received an intravenous infusion of two Radicut® ampoules (15 minutes infusion time).

[3] = as above; assay type: in vivo; details: male, beagle, dog; for concentration at […]: 0.25 hrs
[4] = Single dose, randomized, two-period cross-over study, oral solution 140 mg vs i.v. 60 mg, plasma pharmacokinetics; assay type: in vivo; details: human
Description: A single dose, randomized, two-period, cross-over study was conducted in 18 healthy male and female human subjects.

[5] = ALS patients, Week 24; cited from earlier work
[6] = Rate of dissolution of edaravone in water; assay type: physicochemical; details: in the presence of an alkalizing agent
[7] = iv, i.v. infusion 60 mg (15 min)
[8] = both sexes, plasma, iv, i.v. infusion 60 mg (60 minutes)
[9] = both sexes, plasma, iv, i.v. infusion (60 mg, 60 minutes)
[10] = both sexes, plasma, oral administration 140 mg
[11] = both sexes, plasma, oral administration (140 mg)

CC1=NN(c2ccccc2)C(=O)C1 [edaravone, 3-methyl-1-phenyl-2-pyrazolin-5-one]
absolute bioavailability (Fabs) [1]: 5.23%
Tmax ([2]; 60 mg): 15 min
concentration at 0.083 h ([2]; 0.083 hrs): 3060 ng/mL
concentration at 0.5 h ([2]; 0.5 hrs): 648 ng/mL
concentration at 1 h ([2]; 1 hrs): 140 ng/mL
concentration at 2 h ([2]; 2 hrs): 49 ng/mL
concentration at 4 h ([2]; 4 hrs): 17 ng/mL
concentration at 8 h ([2]; 8 hrs): 6 ng/mL
bioavailability ([3]; oral 60 mg compared to iv infusion, read-out: systemic bioavailability (Fabs)): 34%
AUC(0-inf) ([3]; oral administration 60 mg): 553 ng·h/mL
AUC(0-t) ([3]; oral administration 60 mg): 542 ng·h/mL
Cmax ([3]; oral administration 60 mg): 2310 ng/mL
concentration at 0.083 h ([3]; oral administration 60 mg, 0.083 hrs): 2310 ng/mL
concentration at 0.17 h ([3]; oral administration 60 mg, 0.17 hrs): 994 ng/mL
concentration at […] ([3]; oral administration 60 mg): 491 ng/mL
concentration at 0.5 h ([3]; oral administration 60 mg, 0.5 hrs): 185 ng/mL
concentration at 1 h ([3]; oral administration 60 mg, 1 hrs): 84 ng/mL
concentration at 1.5 h ([3]; oral administration 60 mg, 1.5 hrs): 51 ng/mL
concentration at 2 h ([3]; oral administration 60 mg, 2 hrs): 36 ng/mL
concentration at 4 h ([3]; oral administration 60 mg, 4 hrs): 11 ng/mL
concentration at 6 h ([3]; oral administration 60 mg, 6 hrs): 5 ng/mL
Tmax ([3]; po, 60 mg, oral administration 60 mg): ~5 min
AUC(0-inf) [3, 7]: 1630 ng·h/mL
AUC(0-t) [3, 7]: 1600 ng·h/mL
Cmax [3, 7]: 4380 ng/mL
concentration at […] [3, 7]: 4380 ng/mL
concentration at 10 h ([3]; iv, i.v. infusion 60 mg (15 min), 10 hrs): 5 ng/mL
bioavailability ([4]; both sexes, plasma, oral, 140 mg, oral aqueous solution 140 mg compared to i.v. infusion 60 mg, read-out: systemic / absolute bioavailability (Fabs)): ~80%
AUC(0-inf) [4, 8]: 1300 ng·h/mL
AUC(0-t) [4, 8]: 1290 ng·h/mL
Cmax [4, 8]: 1030 ng/mL
Tmax [4, 8]: 60 min
concentration at 0.17 h [4, 9]: 380 ng/mL
concentration at 0.5 h [4, 9]: 713 ng/mL
concentration at 1 h [4, 9]: 990 ng/mL
concentration at 1.5 h [4, 9]: 321 ng/mL
concentration at 4 h [4, 9]: 42 ng/mL
concentration at 6 h [4, 9]: 14 ng/mL
concentration at 8 h [4, 9]: 8 ng/mL
concentration at 10 h [4, 9]: 5 ng/mL
AUC(0-inf) [4, 10]: 2410 ng·h/mL
AUC(0-t) [4, 10]: 2390 ng·h/mL
Cmax [4, 10]: 2940 ng/mL
concentration at 0.083 h ([4]; both sexes, plasma, oral administration (140 mg), 0.083 hrs): 1200 ng/mL
concentration at 0.17 h [4, 11]: 2360 ng/mL
concentration at […] ([4]; both sexes, plasma, oral administration (140 mg), 0.25 hrs): 2630 ng/mL
concentration at 0.5 h [4, 11]: 1810 ng/mL
concentration at 1 h [4, 11]: 689 ng/mL
concentration at 1.5 h [4, 11]: 354 ng/mL
concentration at 2 h ([4]; both sexes, plasma, oral administration (140 mg), 2 hrs): 203 ng/mL
concentration at 4 h [4, 11]: 68 ng/mL
concentration at 6 h [4, 11]: 24 ng/mL
concentration at 8 h [4, 11]: 13 ng/mL
concentration at 10 h [4, 11]: 9 ng/mL
time to peak maximum concentration after administration ([4]; oral administration 140 mg): about 15 min
decline on a clinical assessment of daily functioning compared to placebo [5]: declined less
rate at which edaravone dissolves in water [6]: increased substantially
